Measured values reported in patent publication US20070053942A1, “Disinfectant and/or bactericidal aqueous compositions” (priority 2003, published 2007).
Where a name gives a salt, the structure may show the parent alone.

Assay: solubility in water
Format: physicochemical

solubility (in water) of olanexidine hydrochloride alone (at 0° C.): 0.02% | solubility in water (at 0° C.): 0.02 W/V % | Solubility (at 25° C., water, pH adjusted to 6): 0.05 W/V %
SMILES: CCCCCCCCNC(=N)NC(=N)NCc1ccc(Cl)c(Cl)c1 [olanexidine hydrochloride, 1-(3,4-dichlorobenzyl)-5-octylbiguanide]
